Measurements from patent US20250179481A1, “COMPOSITIONS AND METHODS FOR TARGETING, EDITING, OR MODIFYING GENES” (Celyntra Therapeutics SA, priority 2021, published 2025).

system: human genes; test: Editing efficiency of tested crRNAs / guide nucleic acids (Tables 7-10) detected in human cells; type: cell-based; settings: Target Gene LAG3; tested crRNAs targeting human genes

With “gLAG3_6: spacer targeting LAG3, SEQ ID NO 153, GGGTGCATACCTGTCTGGCTG (chemistry not given here)” the “% Indel” value was 52.4%.

same assay, conditions: Target Gene PD; tested crRNAs targeting human genes

With “gPD_23: spacer targeting PDCD1, SEQ ID NO 210, TCTGCAGGGACAATAGGAGCC (chemistry not given here)” the “% Indel” value was 57.6%.

same assay, conditions: Target Gene PTPN6; tested crRNAs targeting human genes

Point of comparison: “gPTPN6_9 (guide CCTGACGCTGCCTTCTCTAGG; chemistry not given here)”, “% Indel” value 0.8%. Against it:
- gPTPN6_6: spacer targeting PTPN6, SEQ ID NO 249, TATGACCTGTATGGAGGGGAG (chemistry not given here) — higher, 83.4%
- gPTPN6_8 (guide AGGTGGATGATGGTGCCGTCG; chemistry not given here) — higher, 3.5%

same assay, conditions: Target Gene TIGIT; tested crRNAs targeting human genes

Point of comparison: “gTIGIT_2: spacer targeting TIGIT, SEQ ID NO 302, AGGCCTTACCTGAGGCGAGGG (chemistry not given here)”, “% Indel” value 81.7%. Against it:
- gTIGIT_1 (guide CCTGAGGCGAGGGGAGCCTGC; chemistry not given here) — lower, 0.2%
- gTIGIT_3 (guide GTCCTCTTCCCTAGGAATGAT; chemistry not given here) — lower, 1.3%
- gTIGIT_4 (guide TATTGTGCCTGTCATCATTCC; chemistry not given here) — lower, 1%
- gTIGIT_5 (guide TCTGCAGAAATGTTCCCCGTT; chemistry not given here) — lower, 1.1%
- gTIGIT_6 (guide CTCTGCAGAAATGTTCCCCGT; chemistry not given here) — lower, 0.1%
- gTIGIT_7 (guide TGCAGAGAAAGGTGGCTCTAT; chemistry not given here) — lower, 6%
- gTIGIT_8 (guide TGCCGTGGTGGAGGAGAGGTG; chemistry not given here) — lower, 0.3%
- gTIGIT_9 (guide TGGCCATTTGTAATGCTGACT; chemistry not given here) — lower, 0.8%
- gTIGIT_10 (guide TAATGCTGACTTGGGGTGGCA; chemistry not given here) — lower, 1.6%
- gTIGIT_11 (guide GGGTGGCACATCTCCCCATCC; chemistry not given here) — lower, 9.7%
- gTIGIT_12 (guide AAGGATGGGGAGATGTGCCAC; chemistry not given here) — lower, 0.4%
- gTIGIT_13 (guide AAGGATCGAGTGGCCCCAGGT; chemistry not given here) — lower, 0.2%
- gTIGIT_14 (guide TGCATCTATCACACCTACCCT; chemistry not given here) — lower, 1.4%
- gTIGIT_15 (guide TAGGACCTCCAGGAAGATTCT; chemistry not given here) — lower, 0.4%
- gTIGIT_16 (guide CTAGGACCTCCAGGAAGATTC; chemistry not given here) — lower, 0.5%
- gTIGIT_17 (guide CTCCAGCAGGAATACCTGAGC; chemistry not given here) — lower, 0.8%
- gTIGIT_18 (guide GTCCTCCCTCTAGTGGCTGAG; chemistry not given here) — lower, 72.4%
- gTIGIT_19 (guide GAGCCATGGCCGCGACGCTGG; chemistry not given here) — lower, 0.9%
- gTIGIT_20 (guide TAGTCAACGCGACCACCACGA; chemistry not given here) — lower, 0.1%
- gTIGIT_21 (guide CTAGTCAACGCGACCACCACG; chemistry not given here) — lower, 0.1%
- gTIGIT_22 (guide TAGTTTGTTTGTTTTTAGAAG; chemistry not given here) — lower, 0.6%
- gTIGIT_23 (guide TTTGTTTTTAGAAGAAAGCCC; chemistry not given here) — lower, 1%
- gTIGIT_24 (guide TTTTTAGAAGAAAGCCCTCAG; chemistry not given here) — lower, 0.4%
- gTIGIT_25 (guide TAGAAGAAAGCCCTCAGAATC; chemistry not given here) — lower, 1.2%
- gTIGIT_26 (guide CACAGAATGGATTCTGAGGGC; chemistry not given here) — lower, 0.3%
- gTIGIT_27 (guide CTCCTGAGGTCACCTTCCACA; chemistry not given here) — lower, 1.6%
- gTIGIT_28 (guide CTGGGGGTGAGGGAGCACTGG; chemistry not given here) — lower, 0.5%
- gTIGIT_29 (guide TGCCTGGACACAGCTTCCTGG; chemistry not given here) — lower, 0.3%
- gTIGIT_30 (guide TGTAACTCAGGACATTGAAGT; chemistry not given here) — lower, 0.5%
- gTIGIT_31 (guide AATGTCCTGAGTTACAGAAGC; chemistry not given here) — lower, 0.5%

same assay, conditions: Target Gene TRAC; tested crRNAs targeting human genes

Point of comparison: “gTRAC089 (guide AACTCAGGGTTGAGAAAACAG; chemistry not given here)”, “% Indel” value 0.7%. Against it:
- gTRAC090 (guide ACTCAGGGTTGAGAAAACAGC; chemistry not given here) — lower, 0.1%

same assay, conditions: crRNA targeting TRBC1 + 2; value at TRBC1

With “gTRBC1 + 2_1 (guide AGCCATCAGAAGCAGAGATCT; chemistry not given here)” the “% Indel (TRBC1)” value was 66.40%.

same assay, conditions: crRNA targeting TRBC1 + 2; value at TRBC2

“gTRBC1 + 2_1 (guide AGCCATCAGAAGCAGAGATCT; chemistry not given here)” was tested, and the “% Indel (TRBC2)” value was 74.7%.

same assay, conditions: tested crRNAs targeting human genes; target gene as given (Table 10)

Point of comparison: “gIL7R_3: spacer targeting IL7R, SEQ ID NO 1393, CAGGGGAGATGGATCCTATCT (chemistry not given here)”, “% Indel” value 87.87%. Against it:
- gCARD11_1: spacer targeting CARD11, SEQ ID NO 1388, TAGTACCGCTCCTGGAAGGTT (chemistry not given here) — lower, 1.37%
- gCD247_12: spacer targeting CD247, SEQ ID NO 89, CTAGCAGAGAAGGAAGAACCC (chemistry not given here) — lower, 70.64%
- gDHODH_1 (guide TTGCAGAAGCGGGCCCAGGAT; chemistry not given here) — lower, 0.6%
- gDHODH_2 (guide TTGCAGAAGCGGGCCCAGGAT; chemistry not given here) — lower, 0.59%
- gDHODH_3 (guide TATGCTGAACACCTGATGCCG; chemistry not given here) — lower, 74.94%
- gLCK1_3: spacer targeting LCK, SEQ ID NO 1401, ACCCATCAACCCGTAGGGATG (chemistry not given here) — lower, 16.21%
- gPLCG1_2: spacer targeting PLCG1, SEQ ID NO 1403, CCTTTCTGCGCTTCGTGGTGT (chemistry not given here) — lower, 5.14%
- gTRAC006: spacer targeting TRAC, SEQ ID NO 988, TGAGGGTGAAGGATAGACGCT (chemistry not given here) — lower, 81.8%
- gTRAC084 (guide GACTTTTCCCAGCTGACAGAT; chemistry not given here) — lower, 1.6%
- gTRAC085 (guide TCAACCCTGAGTTAAAACACA; chemistry not given here) — lower, 0.5%
- gTRAC086 (guide CTCAACCCTGAGTTAAAACAC; chemistry not given here) — lower, 0.2%
- gTRAC087 (guide TCCTGAAGGTAGCTGTTTTCT; chemistry not given here) — lower, 0.2%
- gTRAC088 (guide GTCCTGAAGGTAGCTGTTTTC; chemistry not given here) — lower, 0.1%
- gTRBC2_7 (guide CCCTGTTTTCTTTCAGACTGT; chemistry not given here) — lower, 0.09%
